Results: patent publication US20080031817A1, “Inhibition Of Superoxide Dismutase By Tetrathiomolybdate: Identification Of New Anti-Angiogenic And Antitumor Agents” (priority 2004, published 2008)

How the values were obtained:
bovine SOD1 [1] = target: T1, bovine SOD1 (Bos taurus, UniProt P00442); experiment: CuZn SOD (SOD1) activity assay, xanthine/xanthine oxidase with WST-1; type: biochemical; conditions: for inhibition of SOD1 activity in vitro: in vitro enzyme assay, WST-1
Protocol: SOD1 was assayed with a commercially available kit (Dojindo) based on the xanthine/xanthine oxidase superoxide generation reaction coupled to a water soluble tetrazolium salt, WST-1.
Standard curves (0-13 nM) of bovine SOD were generated using the SOD1 assay described above in the presence of increasing concentrations of ATN-224. Appropriate blanks comprising ATN-224 in the absence of SOD1 enzyme were also generated. The inhibition of SOD1 activity was calculated from these standard curves.

angiogenesis = experiment: Matrigel plug assay (hemoglobin); type: in vivo; conditions: mice
Protocol: This assay is performed essentially as described by Passaniti et al. (Lab Invest. 67:519-528 (1992). Ice-cold Matrigel® (e.g., 500 μL) (Collaborative Biomedical Products, Inc., Bedford, Mass.) is mixed with heparin (e.g., 50 μg/ml), FGF-2 (e.g., 400 ng/ml) and the compound to be tested. In some assays, bFGF may be substituted with tumor cells as the angiogenic stimulus. The Matrigel® mixture is injected subcutaneously into 4-8 week-old athymic nude mice at sites near the abdominal midline, preferably 3 injections per mouse. The injected Matrigel® forms a palpable solid gel. Injection sites are chosen such that each animal receives a positive control plug (such as FGF-2+heparin), a negative control plug (e.g., buffer+heparin) and a plug that includes the compound being tested for its effect on angiogenesis, e.g., (FGF-2+heparin+compound). […] Hemoglobin (Hb) levels are determined using Drabkin's solution (e.g., obtained from Sigma) according to the manufacturers' instructions. […] The amount of fluorescence in the dispersed plug, determined fluorimetrically, also serves as a measure of angiogenesis in the plug. […]
Matrigel® ([…]) on ice was mixed with heparin (50 mg/ml), FGF-2 (800 ng/ml), VEGF (300 ng/ml) and the test compound. […] Hemoglobin levels in the plugs were determined using Drabkin's solution according to the manufacturers' instructions (Sigma Chemicals). […]

[2] = system: superoxide anions in HUVECs; conditions: 72 hrs, ATN-224 at IC50, 5 μM DHE, vs control HUVECs
Protocol: HUVECs were plated in 6 well cluster plates on 0.1% gelatin at 6000 cells/well in M200/2% FCS. Cells were incubated at 37° C./5% CO2 for 16 hrs. Cells were rinsed, and ATN-224 was added in medium supplemented with 1 ng/ml FGF-2. Cells were incubated at 37 ° for 72 hours, rinsed in PBS, and DHE (Molecular probes) was added (5 μM) to the cells. Cells were then visualized microscopically using a fluorescent lamp and a red filter.

[3] = system: intracellular copper levels
intracellular CuZnSOD = target: T2, intracellular CuZnSOD (Homo sapiens, UniProt P00441); experiment: Intracellular CuZnSOD activity in HUVECs; type: cell-based
T2 construct: Lysates were assayed for SOD1 activity as described above; endogenous in cells; host or cells: HUVEC
T2 sequence (P00441 whole entry): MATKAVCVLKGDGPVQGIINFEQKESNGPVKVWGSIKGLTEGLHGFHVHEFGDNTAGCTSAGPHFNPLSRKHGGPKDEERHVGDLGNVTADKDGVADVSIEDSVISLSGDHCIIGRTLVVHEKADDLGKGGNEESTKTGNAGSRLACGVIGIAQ
Protocol: HUVECs were plated on 0.1% gelatin at 2-4×10^6 cells in T-25 flasks in M200 medium with 2% FCS. Cells were incubated at 37° C./5% CO2 for 16 hrs. Cells were rinsed with M200/2% FCS and incubated for a further 2 hrs in medium to which varying concentration of ATN-224 and FGF-2 (at 1 ng/ml) were added. At various intervals, medium was removed and the cells lysed in lysis buffer. Lysates were assayed for SOD1 activity as described above. Lysates were also analyzed by Western blot using a SOD1-specific polyclonal antibody (Biodesign, ME). These experiments were repeated in increasing concentrations of serum.

[4] = Zn^2+, Fe^2+, Ca^2+, Mn^2+, Mg^2+; standard binding assays
SOD1 = target: T3, SOD1 (Homo sapiens, UniProt P00441); experiment: SOD1 activity in treated tumors; type: in vivo; conditions: SOD1 protein unchanged (Western blot)
T3 construct: from tissue
T3 sequence (P00441 whole entry, species assumed): as the sequence (P00441 whole entry) above

bovine SOD1 [5] = target: T1, bovine SOD1; experiment: Removal of copper from SOD1 (gel filtration, ICP-MS); type: biochemical
Protocol: […] The protein was then purified by gel filtration chromatography. The sample was then analyzed for molybdenum content and copper content by ICP-MS.

HUVEC = HUVEC proliferation assay (acid phosphatase method); type: cell-based, human
Protocol: Alternatively, cells at a density of 6000/well are plated in wells of 48 well microplates on 0.1% gelatin in 200 μl M200/2% FCS, and incubated at 37° C. in a humid atmosphere of 5% CO2 for 16 hrs. Compounds to be tested are diluted in M200 supplemented with 2% FCS and 1 ng/ml FGF-2 and added to the cells. Positive control contain no compound, and negative controls contain no compound or FGF-2. Cells are incubated at 37° C./5% CO2 for 72 hours. Cells are enumerated indirectly using the acid phosphatase method (Connolly, D T et al., 1986, Anal. Biochem 152:136-140). After removal of growth medium, the cells are lysed in buffer containing Triton X-100. The chromogenic substrate for acid phosphatase, p-nitrophenyl phosphate is added at a concentration of 100 mM. After incubation for 75 min. at 37° C., the reaction is stopped with 1N NaOH, and color is measured using a multiwell microplate reader.
Cells at a density of 6000/well were plated in wells of 48 well microplates on 0.1% gelatin in 200 μl M200/2% FCS, and were incubated at 37° C. in a humid atmosphere of 5% CO2 for 16 hrs. Compounds to be tested were diluted in M200 supplemented with 2% FCS and 1 ng/ml FGF-2 and added to the cells. Positive control contained no compound, and negative controls contained no compound or FGF-2. Cells were incubated at 37° C./5% CO2 for 72 hours. Cells were enumerated indirectly using the acid phosphatase method. After removal of growth medium, the cells were lysed in buffer containing the detergent Triton X-100. The chromogenic substrate for acid phosphatase, p-nitrophenyl phosphate was added at a concentration of 100 mM. After incubation for 75 min. at 37° C., the reaction was stopped with 1N NaOH and color was measured using a multiwell microplate reader.
HUVEC proliferation assays were performed as described. Increasing concentrations of ATN-224 was added to cultures in the presence or absence of 100 μM MnTBAP (AG Scientific, San Diego). Cell number was estimated using the acid phosphatase method described above.

extracellular SOD = target: T4, extracellular SOD (Homo sapiens, UniProt P08294); conditions: alcoholics, compared to untreated alcoholics and healthy control; cited from earlier work
T4 construct: DS administered to alcoholics reduced by 20% extracellular SOD activity
T4 sequence (P08294 19-240): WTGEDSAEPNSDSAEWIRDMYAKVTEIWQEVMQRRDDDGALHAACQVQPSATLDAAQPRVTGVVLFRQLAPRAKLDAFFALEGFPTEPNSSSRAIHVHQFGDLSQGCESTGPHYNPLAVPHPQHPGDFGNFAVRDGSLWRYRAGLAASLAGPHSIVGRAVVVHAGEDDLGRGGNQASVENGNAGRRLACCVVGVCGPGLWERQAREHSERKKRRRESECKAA

T1 sequence (P00442 whole entry): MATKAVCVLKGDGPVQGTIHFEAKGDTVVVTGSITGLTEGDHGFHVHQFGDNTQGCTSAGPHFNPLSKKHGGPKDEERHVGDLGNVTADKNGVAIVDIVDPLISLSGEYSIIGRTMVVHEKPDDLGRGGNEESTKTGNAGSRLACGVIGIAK

O=C1CC(c2cccs2)Sc2ccccc2N1 (stereo not drawn) [ATN 722]
inhibition of SOD1 activity in vitro (bovine SOD1 [1]): inhibited SOD1 activity

C[N+](C)(C)CCO.C[N+](C)(C)CCO.[SH-].[SH-].[S]=[Mo]=[S] [ATN-224, choline tetrathiomolybdate]
angiogenesis in Matrigel plugs (angiogenesis; compound in plug, 5 days): inhibited | DHE fluorescence (superoxide) [2]: strong fluorescence | intracellular copper levels [3]: does not increase intracellular copper levels | IL-8 expression (IL-8 expression): down-regulates IL-8 expression | level of CuZnSOD protein (Western blot) (intracellular CuZnSOD; HUVEC lysates): did not affect the level of CuZnSOD protein | inhibition of intracellular CuZnSOD (intracellular CuZnSOD; HUVECs, 3 concentrations, up to 24 hours): dose and time dependent inhibition | effect of serum on intracellular CuZnSOD inhibition (intracellular CuZnSOD; increasing concentrations of serum): unaffected by the presence of serum | binding to other metal cations [4]: does not bind detectably | inhibition of aldehyde dehydrogenase (aldehyde dehydrogenase): does not inhibit | SOD1 enzymatic activity in treated tumors (SOD1): reduced SOD1 enzymatic activity | inhibition of SOD1 activity in vitro (bovine SOD1 [1]): inhibited this reaction | inhibition of generation of superoxide ions in the assay (bovine SOD1 [1]; xanthine/xanthine oxidase): did not act by inhibiting generation of superoxide ions | binding to CuZnSOD (Mo content of purified protein) (bovine SOD1 [5]): did not bind to CuZnSOD | copper content of CuZnSOD (bovine SOD1 [5]): appreciable loss of copper | IC50 (HUVEC; FGF-2 driven, 72 hours, read-out: IC50, inhibition of HUVEC proliferation): 1000 to 2000 nM | inhibition of FGF-2 driven proliferation with copper added (HUVEC; equimolar concentrations of copper added): completely abrogated

C[N+](C)(C)CCO.C[N+](C)(C)CCO.[S]=[W](=[S])([S-])[S-] [ATN-427, choline tetrathiotungstate]
inhibition of SOD1 activity in vitro (bovine SOD1 [1]): inhibited SOD1 activity | inhibition of SOD1 activity in vitro (bovine SOD1 [1]; listed as choline tetrathiotungstate): effective inhibitor of SOD1 activity

c1csc(CSc2nc3ccccc3s2)c1 [ATN-714]
inhibition of SOD1 activity in vitro (bovine SOD1 [1]): inhibited SOD1 activity

CN(C)C1=NCC(CSC(=N)N)S1 (stereo not drawn) [ATN-719]
inhibition of SOD1 activity in vitro (bovine SOD1 [1]): inhibited SOD1 activity

CCN(CC)C(=S)SSC(=S)N(CC)CC [DS, Tetraethylthiuram disulfide]
reduction of extracellular SOD activity (extracellular SOD): 20%

O=C(O)c1ccc(/C2=C3\C=CC(=N3)/C(c3ccc(C(=O)O)cc3)=c3/cc/c4[n]3[Mn]([Cl])[n]3c2ccc3/C(c2ccc(C(=O)O)cc2)=C2/C=CC(=N2)\C=4c2ccc(C(=O)O)cc2)cc1 [MnTBAP, reference compound]
reversal of ATN-224 inhibition of angiogenesis (angiogenesis; MnTBAP with ATN-224 in plug): abrogated most of this inhibition | reversal of ATN-224 inhibition of cell proliferation (HUVEC; 100 μM MnTBAP with ATN-224): abrogate most of the inhibition
